Literature values in paper PMC6722509, “Design and In Vivo Pharmacokinetic Evaluation of Triamcinolone Acetonide Microcrystals-Loaded PLGA Microsphere for Increased Drug Retention in Knees after Intra-Articular Injection” (Pharmaceutics, 2019).

Legend:
[1] = 0.25 mg per knee, rats

## CC1(C)O[C@@H]2C[C@H]3[C@@H]4CCC5=CC(=O)C=C[C@]5(C)[C@@]4(F)[C@@H](O)C[C@]3(C)[C@]2(C(=O)CO)O1 [TA, triamcinolone acetonide]
other
  Solubility in ACN: < 1 mg/mL
[1]
  Tolerability of IA dose: well tolerated
